We go through 1 compound from ChEMBL document CHEMBL1140807, “A flavonoid gossypin binds to cyclin-dependent kinase 2” (Bioorg Med Chem Lett, 2008).

SMILES strings stand for the structures. The source made the active and inactive calls. The rule behind the calls is not given here.

For the test, the target named is Cyclin-dependent kinase 2 (Homo sapiens) (UniProt P24941). Nature of the test: Binding affinity to human CDK2.

Consider `O=c1c(O)c(-c2ccc(O)c(O)c2)oc2c(O[C@@H]3O[C@H](CO)[C@@H](O)[C@H](O)[C@H]3O)c(O)cc(O)c12`, for which the outcome was Active.
